Results on eight compounds are retold here after ChEMBL document CHEMBL1799997, “Discovery of omecamtiv mecarbil the first, selective, small molecule activator of cardiac Myosin” (ACS Med Chem Lett, 2010).

Values after ≈ are worked out from the molar mass of the structure shown. Active and inactive are the calls of the source. The rule behind the calls is not given here. A value given as a limit tells only on which side of the number the result lay.

One may read the solubility (kinetic) as the concentration staying in solution when a stock, usually in DMSO, is diluted into the medium. By IC50 is commonly meant the concentration that gives 50% inhibition. A low value points to inhibition by little substance. Usually thermodynamic solubility stands for the concentration in solution at equilibrium with solid.

Tested on in one data set: not listed separately
Nature of the data set: Kinetic solubility of the compound. The format is physicochemical.
Conditions: not given
As for `O=C(Nc1cccnc1)Nc1cc(F)cc(Oc2cccnc2)c1`, the solubility (kinetic) was 46 µg/mL (≈ 142 µM).
On the same count and under the same terms, then `O=C(Nc1ccc(F)cc1)Nc1cc(F)cc(Oc2cccnc2)c1`, with 1.1 µg/mL (≈ 3.22 µM); and `COc1ccc(NC(=O)Nc2cc(F)cc(Oc3cccnc3)c2)cc1`, with under 1 µg/mL.
Compound `O=C(Nc1cc(F)cc(Oc2cccnc2)c1)c1ccc(F)cc1` displayed a solubility (kinetic) of 5.3 µg/mL (≈ 16.2 µM).
Same read-out and setting: as for `O=C(Nc1cccc(Oc2cccnc2)c1)c1ccc(F)cc1`, the figure is 17 µg/mL (≈ 55.1 µM); as for `COc1ccc(NC(=O)Nc2cc(F)cc(Oc3cccnc3)c2)cn1`, 28 µg/mL (≈ 79 µM).
On the same count and under the same terms, then `O=C(Nc1cc(Oc2cccnc2)cc([N+](=O)[O-])c1)c1ccc(F)cc1`, with under 1 µg/mL.

Tested on in the next data set: not listed separately
Nature of the data set: Induction of contractility in Sprague-Dawley rat Cardiomyocytes assessed as change in fractional shortening at 0.4 uM.
Conditions: not given
The format is functional, Cardiac muscle cell.
With `CN(C)S(=O)(=O)N1CC[C@@H](Oc2cc(F)cc(NC(=O)Nc3cccnc3)c2)C1`, the Activity was 137%.

The species entered for another data set is Bos taurus. Nature of the data set: Activation of bovine uterus myosin in smooth muscle assessed as compound concentration resulting in 40% increase in ATPase activity at calcium concentrations that produced 25-50% of maximum calcium dependent activation at 100 uM as single dose.
Conditions: not given
In the case of `O=C(Nc1cc(Oc2cccnc2)cc([N+](=O)[O-])c1)c1ccc(F)cc1`, the outcome was inactive.

Tested on in a further data set: not listed separately
Nature of the data set: Plasma protein binding in Sprague-Dawley rat. The format is ADME, cell-free. The note with it: read-out: PPB (converted).
With `O=C(Nc1cccnc1)Nc1cc(F)cc(Oc2cccnc2)c1`, the fraction unbound was 0.071.
Still for that read-out and setting: as for `COc1ccc(NC(=O)Nc2cc(F)cc(Oc3cccnc3)c2)cc1`, the figure is 0.049; as for `O=C(Nc1cc(F)cc(Oc2cccnc2)c1)c1ccc(F)cc1`, 0.079.
With `COc1ccc(NC(=O)Nc2cc(F)cc(Oc3cccnc3)c2)cn1`, the fraction unbound was 0.075.
Same read-out and setting: then `CN(C)S(=O)(=O)N1CC[C@@H](Oc2cc(F)cc(NC(=O)Nc3cccnc3)c2)C1`, with 0.112.

The species entered for a further data set is Bos taurus. Nature of the data set: Activation of bovine myosin in cardiac sarcomere assessed as compound concentration resulting in 40% increase in ATPase activity at calcium concentrations that produced 25-50% of maximum calcium dependent activation at 100 uM as single dose.
Conditions: not given
Turning to `O=C(Nc1cc(Oc2cccnc2)cc([N+](=O)[O-])c1)c1ccc(F)cc1`, the result was Active.

The species entered for another data set is Rattus norvegicus. The data set is described as follows: Activation of Sprague-Dawley rat myosin in cardiomyocytes assessed as compound concentration resulting in 40% increase in ATPase activity at calcium concentrations that produced 25-50% of maximum calcium dependent activation. The data set is classed as cell-based.
Conditions: not given
Consider `O=C(Nc1cccnc1)Nc1cc(F)cc(Oc2cccnc2)c1`, for which the Activity is 1.1 µM.
Still for that read-out and setting: then `O=C(Nc1ccc(F)cc1)Nc1cc(F)cc(Oc2cccnc2)c1`, with 1.8 µM.
Still for that read-out and setting: as for `COc1ccc(NC(=O)Nc2cc(F)cc(Oc3cccnc3)c2)cc1`, the figure is 0.7 µM.
The same measure, in the same setting: as for `O=C(Nc1cc(F)cc(Oc2cccnc2)c1)c1ccc(F)cc1`, the figure is 2.5 µM; as for `O=C(Nc1cccc(Oc2cccnc2)c1)c1ccc(F)cc1`, 32 µM; as for `COc1ccc(NC(=O)Nc2cc(F)cc(Oc3cccnc3)c2)cn1`, 1.4 µM.
Consider `O=C(Nc1cc(Oc2cccnc2)cc([N+](=O)[O-])c1)c1ccc(F)cc1`, for which the Activity came out at 1.4 µM.
Same read-out and setting: as for `CN(C)S(=O)(=O)N1CC[C@@H](Oc2cc(F)cc(NC(=O)Nc3cccnc3)c2)C1`, the figure is 0.7 µM.

Tested on in a further data set: not listed separately
Nature of the data set: Ratio of extraction in human Liver microsomes. The format is ADME, Microsome. Particulars: read-out: ERH. Background: Liver microsomes are vesicles of endoplasmic reticulum, rich in cytochrome P450 enzymes.
Turning to `CN(C)S(=O)(=O)N1CC[C@@H](Oc2cc(F)cc(NC(=O)Nc3cccnc3)c2)C1`, the hepatic extraction ratio was found to be 0.9.

The next data set is filed under the species Rattus norvegicus. The data set is described as follows: Activation of myosin in Sprague-Dawley rat cardiomyocytes assessed as compound concentration resulting in 40% increase in ATPase activity at calcium concentrations that produced 25-50% of maximum calcium dependent activation.
Conditions: not given
The format is cell-based.
In the case of `O=C(Nc1cc(Oc2cccnc2)cc([N+](=O)[O-])c1)c1ccc(F)cc1`, the result was Active.

Another data set relates to Aorta. The data set is described as follows: Inhibition of vasodilation in Sprague-Dawley rat aortic ring. The data set is classed as functional.
Conditions: not given
Regarding `CN(C)S(=O)(=O)N1CC[C@@H](Oc2cc(F)cc(NC(=O)Nc3cccnc3)c2)C1`, the R50 is over 25 µM.

The species named for the next data set is Oryctolagus cuniculus. Nature of the data set: Activation of rabbit myosin in skeletal muscle assessed as compound concentration resulting in 40% increase in ATPase activity at calcium concentrations that produced 25-50% of maximum calcium dependent activation at 100 uM as single dose.
Conditions: not given
In the case of `O=C(Nc1cc(Oc2cccnc2)cc([N+](=O)[O-])c1)c1ccc(F)cc1`, the outcome was inactive.

Tested on in another data set: not listed separately
Nature of the data set: Induction of contractility in Sprague-Dawley rat Cardiomyocytes assessed as change in fractional shortening at 2 uM. The data set is classed as functional, Cardiac muscle cell.
Conditions: not given
For `O=C(Nc1cccnc1)Nc1cc(F)cc(Oc2cccnc2)c1`, the Activity is listed as 127%.
On the same count and under the same terms, as for `O=C(Nc1ccc(F)cc1)Nc1cc(F)cc(Oc2cccnc2)c1`, the figure is 121%; as for `COc1ccc(NC(=O)Nc2cc(F)cc(Oc3cccnc3)c2)cc1`, 139%; as for `O=C(Nc1cc(F)cc(Oc2cccnc2)c1)c1ccc(F)cc1`, 104%.
The same measure, in the same setting: then `COc1ccc(NC(=O)Nc2cc(F)cc(Oc3cccnc3)c2)cn1`, with 134%.

For another data set, the target named is T1, Cytochrome P450 1A2 (Homo sapiens, UniProt P05177).
T1 sequence (P05177 whole entry): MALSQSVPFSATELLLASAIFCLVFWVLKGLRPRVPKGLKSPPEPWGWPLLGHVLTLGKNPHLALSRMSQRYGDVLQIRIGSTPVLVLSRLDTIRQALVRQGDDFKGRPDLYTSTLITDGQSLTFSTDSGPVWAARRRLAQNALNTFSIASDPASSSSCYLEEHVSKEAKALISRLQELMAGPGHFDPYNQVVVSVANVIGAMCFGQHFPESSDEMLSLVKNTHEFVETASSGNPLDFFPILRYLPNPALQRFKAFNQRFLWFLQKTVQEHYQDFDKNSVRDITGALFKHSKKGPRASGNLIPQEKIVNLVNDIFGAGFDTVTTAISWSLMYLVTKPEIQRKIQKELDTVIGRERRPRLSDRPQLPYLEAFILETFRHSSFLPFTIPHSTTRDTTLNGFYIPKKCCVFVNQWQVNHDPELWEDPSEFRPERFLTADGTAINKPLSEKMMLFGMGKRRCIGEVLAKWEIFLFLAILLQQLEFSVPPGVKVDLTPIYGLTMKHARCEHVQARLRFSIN
Nature of the data set: Inhibition of CYP1A2.
Conditions: not given
The data set is classed as ADME.
Take `CN(C)S(=O)(=O)N1CC[C@@H](Oc2cc(F)cc(NC(=O)Nc3cccnc3)c2)C1`: inhibition was half-maximal at 60 nM (IC50).

Tested on in the next data set: not listed separately
The data set is described as follows: Solubility of the compound at pH 5 by shake flask method. The format is physicochemical. The note with it: buffer.
In turn, `O=C(Nc1cccnc1)Nc1cc(F)cc(Oc2cccnc2)c1` displayed a thermodynamic solubility of 28 µg/mL (≈ 86.3 µM).
Same read-out and setting: then `CN(C)S(=O)(=O)N1CC[C@@H](Oc2cc(F)cc(NC(=O)Nc3cccnc3)c2)C1`, with 13 µg/mL (≈ 30.7 µM).

For the next data set, the species on record is Gallus gallus. Nature of the data set: Activation of chicken gizzard myosin in smooth muscle assessed as compound concentration resulting in 40% increase in ATPase activity at calcium concentrations that produced 25-50% of maximum calcium dependent activation at 100 uM as single dose.
Conditions: not given
In the case of `O=C(Nc1cc(Oc2cccnc2)cc([N+](=O)[O-])c1)c1ccc(F)cc1`, the result was inactive.

Tested on in a further data set: not listed separately
The data set is described as follows: Induction of contractility in Sprague-Dawley rat Cardiomyocytes assessed as change in increase in fractional shortening at 2 uM. The format is functional, Cardiac muscle cell.
Conditions: not given
`O=C(Nc1cc(Oc2cccnc2)cc([N+](=O)[O-])c1)c1ccc(F)cc1`: the Activity is on record as 135%.
